From ChEMBL document CHEMBL5665443, “Enzyme Inhibitor Single Concentration assay results for EUbOPEN Chemogenomics Library” (2024)

What was measured:
[1] = target: G/T mismatch-specific thymine DNA glycosylase (Homo sapiens) (UniProt Q13569); details: Hit No;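 further: human TDG cleavage of quenched duplex DNA oligonucleotides coupled to APE1, strand release read as fluorescence at 594 nm, inhibition of TDG activity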
Description: Inhibition of TDG by quantifying inhibition of TDG-mediated cleavage and dissociation of quenched duplex DNA oligonucleotides, measured as fluorescence at 594 nm. To generate a functional strand incision and increase turn-over this assay is coupled to APE1.

[2] = target: T1, Single-strand selective monofunctional uracil DNA glycosylase (Homo sapiens) (UniProt Q53HV7); details: Hit No;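 further: enzymatic SMUG1 assay coupled with APE1, reading fluorescence at 594 nm released when a quenched double-stranded DNA oligonucleotide substrate is cleaved and separated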
T1 sequence (whole entry): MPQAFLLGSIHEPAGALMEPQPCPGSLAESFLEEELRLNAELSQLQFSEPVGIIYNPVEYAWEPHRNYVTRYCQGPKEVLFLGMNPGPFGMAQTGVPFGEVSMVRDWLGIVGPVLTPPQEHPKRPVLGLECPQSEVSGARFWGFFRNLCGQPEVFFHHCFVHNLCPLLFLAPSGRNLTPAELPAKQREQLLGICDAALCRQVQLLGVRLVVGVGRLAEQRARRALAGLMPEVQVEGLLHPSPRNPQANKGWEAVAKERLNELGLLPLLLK
Description: Inhibition of SMUG1 by quantifying inhibition of SMUG1-mediated cleavage and dissociation of quenched duplex DNA oligonucleotides, measured as fluorescence at 594 nm. To generate a functional strand incision and increase turn-over this assay is coupled to APE1.

[3] = target: Methyl-CpG-binding domain protein 4 (Homo sapiens) (UniProt O95243); details: Hit No;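 further: MBD4 activity read as fluorescence at 594 nm from cleavage and release of a quenched duplex DNA oligonucleotide, with APE1 coupled to incise the strand and raise turnover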
Chain of Methyl-CpG-binding domain protein 4 (Homo sapiens) (O95243 whole entry, the tested form may be a part): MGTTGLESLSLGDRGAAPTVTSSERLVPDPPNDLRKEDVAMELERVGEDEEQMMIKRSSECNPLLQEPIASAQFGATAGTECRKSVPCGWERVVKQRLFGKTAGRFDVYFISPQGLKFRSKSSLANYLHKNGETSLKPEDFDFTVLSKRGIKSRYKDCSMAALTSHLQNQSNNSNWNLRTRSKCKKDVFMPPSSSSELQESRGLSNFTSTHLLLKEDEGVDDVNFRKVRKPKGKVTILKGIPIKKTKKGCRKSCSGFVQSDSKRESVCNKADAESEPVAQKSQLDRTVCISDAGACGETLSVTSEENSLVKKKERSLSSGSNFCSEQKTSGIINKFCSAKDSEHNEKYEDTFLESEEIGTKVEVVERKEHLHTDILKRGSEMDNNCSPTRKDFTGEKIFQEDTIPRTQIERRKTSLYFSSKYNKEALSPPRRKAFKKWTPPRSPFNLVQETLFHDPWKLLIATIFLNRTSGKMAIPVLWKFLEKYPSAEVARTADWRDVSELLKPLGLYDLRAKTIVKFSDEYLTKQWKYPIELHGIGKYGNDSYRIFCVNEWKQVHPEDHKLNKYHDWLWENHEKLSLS
Description: Inhibition of MBD4 by quantifying inhibition of MBD4-mediated cleavage and dissociation of quenched duplex DNA oligonucleotides, measured as fluorescence at 594 nm. To generate a functional strand incision and increase turn-over this assay is coupled to APE1.

[4] = target: T2, Endonuclease 8-like 2 (Homo sapiens) (UniProt Q969S2); details: Hit No;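 further: fluorescence at 594 nm reports NEIL2 cutting and release of a quenched double-stranded DNA oligo substrate, reduced signal read as inhibition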
T2 sequence (whole entry): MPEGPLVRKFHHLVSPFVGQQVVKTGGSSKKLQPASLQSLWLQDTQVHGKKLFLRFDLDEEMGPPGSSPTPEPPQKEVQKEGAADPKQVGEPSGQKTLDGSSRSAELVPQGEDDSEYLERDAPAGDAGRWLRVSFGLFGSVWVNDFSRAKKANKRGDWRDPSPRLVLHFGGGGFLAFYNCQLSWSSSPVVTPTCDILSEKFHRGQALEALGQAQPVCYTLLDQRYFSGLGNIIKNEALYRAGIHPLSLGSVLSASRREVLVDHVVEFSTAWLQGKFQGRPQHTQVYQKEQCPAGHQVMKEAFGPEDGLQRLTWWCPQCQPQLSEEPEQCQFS
Description: Inhibition of NEIL2 by quantifying inhibition of NEIL2-mediated cleavage and dissociation of quenched duplex DNA oligonucleotides, measured as fluorescence at 594 nm.

[5] = target: Uracil-DNA glycosylase (Homo sapiens) (UniProt P13051); details: Hit No;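 further: UNG excision on a quenched double-stranded DNA oligo probe, with APE1 added for strand incision and turnover, read as fluorescence at 594 nm as strands separate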
Chain of Uracil-DNA glycosylase (Homo sapiens) (P13051 whole entry): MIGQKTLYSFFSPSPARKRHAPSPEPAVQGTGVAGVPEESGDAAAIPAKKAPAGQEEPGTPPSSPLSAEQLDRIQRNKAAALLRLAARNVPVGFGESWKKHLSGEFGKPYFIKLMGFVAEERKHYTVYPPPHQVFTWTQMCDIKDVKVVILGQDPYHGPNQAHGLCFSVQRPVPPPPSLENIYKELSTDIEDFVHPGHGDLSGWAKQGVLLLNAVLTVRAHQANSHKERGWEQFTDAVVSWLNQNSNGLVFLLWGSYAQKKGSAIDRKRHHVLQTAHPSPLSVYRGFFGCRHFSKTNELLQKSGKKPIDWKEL
Description: Inhibition of UNG by quantifying inhibition of UNG-mediated cleavage and dissociation of quenched duplex DNA oligonucleotides, measured as fluorescence at 594 nm. To generate a functional strand incision and increase turn-over this assay is coupled to APE1.

[6] = target: N-glycosylase/DNA lyase (Homo sapiens) (UniProt O15527);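 further: OGG1 cleavage of a quenched duplex DNA oligonucleotide, coupled to APE1 for strand incision, read as fluorescence at 594 nm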
Chain of N-glycosylase/DNA lyase (Homo sapiens) (O15527 whole entry): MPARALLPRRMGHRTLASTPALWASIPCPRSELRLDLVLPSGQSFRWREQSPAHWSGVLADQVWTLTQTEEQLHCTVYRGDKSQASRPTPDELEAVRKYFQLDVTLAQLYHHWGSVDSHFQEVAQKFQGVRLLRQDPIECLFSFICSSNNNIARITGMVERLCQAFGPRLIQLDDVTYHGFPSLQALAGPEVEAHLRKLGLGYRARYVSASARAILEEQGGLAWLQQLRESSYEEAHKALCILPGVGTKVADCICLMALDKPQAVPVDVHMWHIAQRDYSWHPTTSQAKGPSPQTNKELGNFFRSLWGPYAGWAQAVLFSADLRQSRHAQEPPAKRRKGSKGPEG
Description: Inhibition of OGG1 by quantifying inhibition of OGG1-mediated cleavage and dissociation of quenched duplex DNA oligonucleotides, measured as fluorescence at 594 nm. To generate a functional strand incision and increase turn-over this assay is coupled to APE1.

[7] = target: Endonuclease 8-like 1 (Homo sapiens) (UniProt Q96FI4); details: Hit No;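 further: fluorescence at 594 nm from quenched duplex DNA oligonucleotides released by NEIL1 cleavage and strand separation, reported as reduction of this enzyme activity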
Chain of Endonuclease 8-like 1 (Homo sapiens) (Q96FI4 whole entry): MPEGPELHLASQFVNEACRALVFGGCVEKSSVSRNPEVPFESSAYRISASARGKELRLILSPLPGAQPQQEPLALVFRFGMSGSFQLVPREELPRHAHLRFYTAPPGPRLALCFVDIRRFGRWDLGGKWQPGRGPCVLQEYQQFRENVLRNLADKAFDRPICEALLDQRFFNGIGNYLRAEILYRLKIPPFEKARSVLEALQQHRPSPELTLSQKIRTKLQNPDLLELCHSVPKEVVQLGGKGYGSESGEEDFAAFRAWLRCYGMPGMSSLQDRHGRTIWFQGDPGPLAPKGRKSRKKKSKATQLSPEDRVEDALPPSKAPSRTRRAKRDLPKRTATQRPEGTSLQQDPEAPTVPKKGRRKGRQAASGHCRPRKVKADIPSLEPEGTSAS
Description: Inhibition of NEIL1 by quantifying inhibition of NEIL1-mediated cleavage and dissociation of quenched duplex DNA oligonucleotides, measured as fluorescence at 594 nm.

[8] = target: T3, Endonuclease III-like protein 1 (Homo sapiens) (UniProt P78549); details: Hit No;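 further: enzyme assay tracking NTHL1 cutting and release of a quenched double-stranded DNA oligo substrate, read as fluorescence at 594 nm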
T3 sequence (whole entry): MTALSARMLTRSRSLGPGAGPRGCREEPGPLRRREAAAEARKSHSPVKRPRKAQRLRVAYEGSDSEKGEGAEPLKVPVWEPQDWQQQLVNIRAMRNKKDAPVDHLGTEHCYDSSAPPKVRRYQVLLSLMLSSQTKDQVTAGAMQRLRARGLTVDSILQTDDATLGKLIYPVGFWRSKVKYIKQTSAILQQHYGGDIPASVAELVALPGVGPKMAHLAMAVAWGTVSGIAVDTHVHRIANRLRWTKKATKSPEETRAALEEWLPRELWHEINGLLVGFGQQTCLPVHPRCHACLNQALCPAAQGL
Description: Inhibition of NTHL1 by quantifying inhibition of NTHL1-mediated cleavage and dissociation of quenched duplex DNA oligonucleotides, measured as fluorescence at 594 nm.

[9] = Compound Concentration 10.0 uM, Hit No
[10] = Compound Concentration 1.0 uM, Hit No

Chain of G/T mismatch-specific thymine DNA glycosylase (Homo sapiens) (Q13569 whole entry): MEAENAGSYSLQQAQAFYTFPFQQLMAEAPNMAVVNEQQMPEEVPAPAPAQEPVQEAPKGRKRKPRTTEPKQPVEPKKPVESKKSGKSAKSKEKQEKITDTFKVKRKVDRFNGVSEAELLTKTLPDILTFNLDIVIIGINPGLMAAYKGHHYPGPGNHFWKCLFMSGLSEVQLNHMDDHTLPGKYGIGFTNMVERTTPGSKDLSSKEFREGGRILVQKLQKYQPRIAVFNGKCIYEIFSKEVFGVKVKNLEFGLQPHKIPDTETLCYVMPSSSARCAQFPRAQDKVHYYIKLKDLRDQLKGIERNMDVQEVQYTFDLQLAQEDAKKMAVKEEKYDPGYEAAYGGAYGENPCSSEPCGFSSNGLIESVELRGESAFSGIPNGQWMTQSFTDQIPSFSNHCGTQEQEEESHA

Compound	inhibition ([1]; Compound Concentration 10.0 uM)	inhibition ([2]; Compound Concentration 10.0 uM)	inhibition ([3]; Compound Concentration 10.0 uM)	inhibition ([4]; Compound Concentration 10.0 uM)	inhibition ([5]; Compound Concentration 10.0 uM)	inhibition [6, 9]	inhibition ([7]; Compound Concentration 10.0 uM)	inhibition ([8]; Compound Concentration 10.0 uM)	inhibition ([6]; Compound Concentration 10.0 uM, Hit Yes)	inhibition ([1]; Compound Concentration 1.0 uM)	inhibition ([2]; Compound Concentration 1.0 uM)	inhibition ([3]; Compound Concentration 1.0 uM)	inhibition ([4]; Compound Concentration 1.0 uM)	inhibition ([5]; Compound Concentration 1.0 uM)	inhibition [6, 10]	inhibition ([7]; Compound Concentration 1.0 uM)	inhibition ([8]; Compound Concentration 1.0 uM)
COC(=O)/C=C/c1cccc(N(Cc2ccc(-c3ccc(N(C)C)cc3)cc2)C(=O)C2CCCCC2)c1	44.3%	-4.57%	53.7%	3.34%	-3.03%	7.66%	-4.23%	7.26%	–	–	–	–	–	–	–	–	–
CN(C)C(=O)Cn1cc(-c2nc(C3(c4ccc(-c5cnc(N)nc5)cc4)CC3)no2)cn1	43.7%	11.1%	22.8%	0.0213%	1.06%	28.7%	–	-5.89%	–	–	–	–	–	–	–	–	–
CN(C)CC#Cc1ccc(OCCCc2sc(N3CCc4cccc(C(=O)Nc5nc6ccccc6s5)c4C3)nc2C(=O)O)c(F)c1	40.4%	1.49%	47.6%	-4.83%	1.14%	–	-0.896%	0.0274%	85.3%	–	–	–	–	–	–	–	–
Cc1cc(OCC(=O)O)cc(C)c1Cc1ccc(O)c(C(C)C)c1	63%	9.54%	57.9%	4.61%	2.02%	20.6%	-0.29%	7.26%	–	–	–	–	–	–	–	–	–
O=C(NOC[C@H](O)CO)c1ccc(F)c(F)c1Nc1ccc(I)cc1F	–	–	–	–	–	–	–	–	–	39.9%	-2.11%	-6.44%	-6.76%	-1.39%	-3.87%	6.08%	5.67%
CO[C@H]1CC[C@H](CNc2ccc(S(=O)(=O)NC(=O)c3ccc(N4CCN(CC5=C(c6ccc(Cl)cc6)CC(C)(C)CC5)CC4)cc3Oc3cnc4[nH]ccc4c3)cc2[N+](=O)[O-])CC1	47.9%	17.9%	55.7%	2.57%	3.44%	62%	-6.8%	-7.86%	–	–	–	–	–	–	–	–	–
O=c1nc(-c2ccccn2)sc2ccccc12	99.2%	5.03%	53.8%	17.4%	-3.04%	10.7%	–	2%	–	–	–	–	–	–	–	–	–
COc1cc(-c2cncc(-c3ccc(N4CCN(C(C)C)CC4)cc3)c2C)cc(F)c1C(=O)N1CCCC1	47.2%	28.7%	0.55%	-8.65%	7.27%	12.1%	3.31%	0.0872%	–	–	–	–	–	–	–	–	–
Cc1ccc2nc(CNCCCOc3ccccc3)cc(O)c2c1	34.3%	6.33%	18.2%	-8.14%	-1.26%	11.7%	0.467%	2%	–	–	–	–	–	–	–	–	–
O=C(Nc1cccnn1)N1CCC(=Cc2cccc(Oc3ccc(C(F)(F)F)cn3)c2)CC1	59.6%	17%	65.2%	-7.12%	0.719%	-7.84%	–	5.94%	–	–	–	–	–	–	–	–	–
CCOC(=O)c1ccc(CN(Cc2ccc(-c3cccc(S(C)(=O)=O)c3)cc2)S(=O)(=O)c2c(C)cc(C)cc2C)o1	35%	14.1%	46%	-7.63%	0.52%	0.574%	–	-3.26%	–	–	–	–	–	–	–	–	–
CCCCN(CCCC)C(=O)CN1C[C@H](c2cc(OC)c3c(c2)OCO3)[C@@H](C(=O)O)[C@@H]1CC(C)(C)CCC	–	–	–	–	–	–	–	–	–	54.3%	14.3%	62.3%	-9.42%	-0.907%	14.6%	–	11.2%
C[C@H](c1ccc(F)cc1)N(Cc1cccc(C(=O)O)c1)C(=O)c1cnc2ccccc2c1	99.9%	15.5%	54.2%	0.531%	1.51%	-1.34%	–	5.94%	–	–	–	–	–	–	–	–	–
O=C1NC(c2ccccn2)Sc2ccccc21 (stereo unspecified)	34%	8.24%	55.9%	-4.83%	-1.67%	-4.34%	–	-7.2%	–	–	–	–	–	–	–	–	–
CN(C)C(=O)/C(C#N)=C/c1ccc(-c2nc3cnc4c(ccn4C)c3n2C2CCCCC2)o1	–	–	–	–	–	–	–	–	–	49.4%	2.69%	95%	-3.8%	-0.285%	-5.75%	–	0.785%
COc1ccc2c(c1)O[C@@H](c1ccc(OC)c(OC)c1)C[C@H]2NC(=O)C1(c2ccc3c(c2)OC(F)(F)O3)CC1	25.6%	-5.34%	35.4%	-1.51%	-6.88%	-6.31%	–	-7.86%	–	–	–	–	–	–	–	–	–
C[C@H](c1ccnc(Nc2nc3ccc(-c4cc(N(C)C)ncn4)cc3[nH]2)c1)N1CCN(C(=O)CC(F)(F)F)CC1	87.4%	11.6%	37.6%	-5.59%	1.7%	-2.48%	–	-3.92%	–	–	–	–	–	–	–	–	–
Cc1cc(C)c(S(=O)(=O)N(Cc2ccc(-c3cccc(S(C)(=O)=O)c3)cc2)Cc2ccc(C(F)(F)F)o2)c(C)c1	97.7%	7.91%	60.3%	-8.4%	-2.84%	-3.9%	–	5.94%	–	–	–	–	–	–	–	–	–
C[C@H](c1ccc(F)cc1)N(Cc1ccc(Cl)c(C(=O)O)c1)C(=O)c1cnc2ccccc2c1	31.5%	16.2%	52.3%	-8.14%	1.41%	8.39%	–	-7.86%	–	–	–	–	–	–	–	–	–

Next, values leading:

inhibition ([1]; Compound Concentration 10.0 uM)	inhibition ([2]; Compound Concentration 10.0 uM)	inhibition ([3]; Compound Concentration 10.0 uM)	inhibition ([4]; Compound Concentration 10.0 uM)	inhibition ([5]; Compound Concentration 10.0 uM)	inhibition [6, 9]	inhibition ([7]; Compound Concentration 10.0 uM)	inhibition ([8]; Compound Concentration 10.0 uM)	inhibition ([6]; Compound Concentration 10.0 uM, Hit Yes)	inhibition ([1]; Compound Concentration 1.0 uM)	inhibition ([2]; Compound Concentration 1.0 uM)	inhibition ([3]; Compound Concentration 1.0 uM)	inhibition ([4]; Compound Concentration 1.0 uM)	inhibition ([5]; Compound Concentration 1.0 uM)	inhibition [6, 10]	inhibition ([7]; Compound Concentration 1.0 uM)	inhibition ([8]; Compound Concentration 1.0 uM)	Compound
47.8%	9.91%	52.9%	-1.51%	1.6%	-5.13%	-1.8%	0.685%	–	–	–	–	–	–	–	–	–	C=C1/C(=C\C=C2/CCC[C@]3(C)[C@@H]([C@H](C)/C=C/[C@H](C)C(C)C)CC[C@@H]23)C[C@@H](O)C[C@@H]1O
43.1%	13.4%	27.6%	-8.34%	3.5%	1.02%	-5.82%	-1.49%	–	–	–	–	–	–	–	–	–	Cc1cnc(-c2cc(Cl)ccc2F)cc1-n1c(=O)n(CC(N)=O)c2cnccc21
86.8%	3.52%	50.6%	-6.1%	0.116%	4.56%	–	-0.63%	–	–	–	–	–	–	–	–	–	CNC(=O)COc1cc2cc(Nc3nc(N4CCC(C(=O)N(C)C)CC4)ncc3Cl)cc(OC)c2n(C)c1=O
8.35%	-7.59%	22.6%	-4.68%	-4.78%	5.81%	7.12%	14.6%	–	–	–	–	–	–	–	–	–	C[C@H](NC(=O)Cc1ccc(-c2ccc3cccnc3n2)cc1)c1ccc(-c2ccc(F)c(C(F)(F)F)c2)cc1
-6.27%	-6.04%	-6.99%	-3.73%	-9.41%	-8.56%	0.982%	7.79%	–	–	–	–	–	–	–	–	–	CC[C@@H]1CN2C(=O)N(C)c3nc(-c4ccccc4)[nH]c3C2=N1
35.7%	21.1%	49.9%	-4.32%	2.8%	-2.62%	-3.92%	1.34%	–	–	–	–	–	–	–	–	–	Cc1cc(C(=O)N2CCN(C3CN(C(=O)c4ccc(-c5ccccc5)cc4)C3)CC2)no1
11.1%	6.21%	52.5%	–	-1.2%	14.4%	–	-7.86%	–	29.7%	7.99%	47.4%	-7.84%	1.12%	–	–	4.97%	COc1cnccc1Nc1nc(-c2nn(Cc3c(F)cc(OCCO)cc3F)c3ccccc23)ncc1OC
9.01%	15.5%	28.2%	-4.06%	2.73%	5.88%	–	10.6%	–	–	–	–	–	–	–	–	–	CN([C@@H]1CCc2c(CC(=O)O)c3ccccc3n2C1)S(=O)(=O)c1ccc(F)cc1
